row,SMILES,melting point
1,O=C(Nc1ccc(N2CCOCC2=O)cc1)[C@H]1C=CCN1C(=O)Nc1ccc(Cl)cc1,245 °C
2,CCOC(=O)c1cnncc1NC(=O)Cc1c(F)cc(F)cc1F,143 to 144 °C
3,O=C1C(=NO)SCCN1Cc1ccccc1,225 to 227 °C
4,[N-]=[N+]=C(c1ccccc1)c1ccc(COCCNC(=O)Nc2ccccc2)cc1,111 to 115 °C
5,CCc1cc(OCc2ccc(-c3ccccc3-c3nnn(C(c4ccccc4)(c4ccccc4)c4ccccc4)n3)cc2)c2c(n1)COCC2,168 to 170 °C
6,CC1CCC(NS(=O)(=O)NC(=O)OCc2ccccc2)CC1 (stereo not drawn),153 to 155 °C
7,FC(F)(F)c1[nH]c(-c2ccc(Cl)cc2)c(C(F)(F)F)c1Br,71 to 75 °C
8,CN1c2ccc(Cl)cc2C(c2ccccc2)=NCC1CN1CCCCC1 (stereo not drawn),143 to 145 °C
9,CC1(C)C(CC(Cl)(Cl)Cl)C1C(=O)O (stereo not drawn),85 to 89 °C
10,CCCOc1cc2c(cc1OC)C(c1ccc(OC)c(OC)c1)=NN=C(C)C2CC (stereo not drawn),110 to 112 °C
11,Cc1cc(C(N)=O)ncc1C(c1c(F)ccc(F)c1F)S(=O)(=O)CCC(F)F (stereo not drawn),192 °C
12,CSc1ccc(C2=C(c3cccs3)C(=O)C(C)(C)O2)cc1,113 to 114 °C
13,CCCCc1cc(OCc2ccc(-c3ccccc3C(=O)OC)cc2)c2ccccc2n1,105 °C
14,C[Si](C)(C)C#Cc1ccc2c(c1)C(c1ccccc1F)=NCc1c(C(=O)OCC(F)(F)F)ncn1-2,220 to 221 °C
15,OC(C1=NCCN1)(c1ccccn1)c1cccs1 (stereo not drawn),151 to 152 °C
16,COc1ccc(C2(O)C(=O)N(Cc3ccc(Cl)cc3)c3ccccc32)cn1 (stereo not drawn),182 to 184 °C
17,COc1ccccc1C1(O)C(O)CC(c2ccccc2)(c2ccccc2)C2CN(C(=O)Cc3c[nH]c4ccc(O)cc34)CC21 (mixture of isomers),230 to 235 °C
18,Cc1ccccc1-n1c(CCl)nc2ccccc2c1=O,205 to 206 °C
19,CCCc1nn(-c2ccc(C(F)(F)F)cn2)cc1CCCOc1cc(CCC(=O)O)n(-c2ccccc2)n1,149 to 150 °C

row,SMILES,melting point
1,CC(=O)Oc1c(C(C)(C)C)cc(N(C)c2ccn(-c3ccccc3)n2)cc1C(C)(C)C,102 to 103 °C
2,Fc1cccc(CSc2nnc(-c3ccnc4[nH]ccc34)o2)c1,190 to 191 °C
3,Cc1ccc(SC(Cl)=C(C(Cl)=C(Cl)Cl)[N+](=O)[O-])cc1,110 to 111 °C
4,CCOC(=O)c1cc(Cl)c(-n2nc(CC)c(C#N)c2N)c(Cl)c1,173 to 175 °C
5,FC(F)(c1ccccc1)C(F)(F)c1ccc(Br)cc1,80 to 82 °C
6,COC12CC(C)(C)C(O1)C(O)C=C2C (stereo not drawn),52 to 54 °C
7,CCOC(=O)C(=O)Nc1nc2ncn(C)c(=S)n2n1,280 to 282 °C
8,C[C@H]([C@](O)(Cn1cncn1)c1ccc(F)cc1F)S(=O)(=O)N1CCN(c2ccc(C(F)(F)F)cc2)CC1,158 to 159 °C
9,Cc1ccc(C(=O)NC(NC(=S)Nc2cccnc2)C(F)(F)F)cc1 (stereo not drawn),185 to 186 °C
10,CN1C2CCC1CC(NC(=O)OC(C)(C)C)C2 (stereo not drawn),79 to 81 °C
11,CCCS(=O)(=O)c1cc([C@H]2CC[C@H](c3cc(OC)c(OC)c(OC)c3)O2)cc(OC)c1OCCBr (relative stereo),135 to 136 °C
12,CCCCCc1cc2c(nc(O)n2[C@@H](C)c2ccccc2)c(N)n1,147 to 148 °C
13,CON(C)C(=O)C(CO[Si](C)(C)C(C)(C)C)NC(=O)OC(C)(C)C (stereo not drawn),71 to 72 °C
14,Nc1nc2ccccc2c2c1nc(CCCOc1ccccc1)n2CCCCNC(=O)N1CCOCC1,71.5 to 72.1 °C
15,CS(=O)(=O)CCCn1c(=NC(=O)c2cccc(Cl)c2)sc2cc(OC(F)(F)F)ccc21,188 °C
16,O=C(O)c1cn(-c2nnc(C(F)(F)F)s2)c2nc(Cl)c(F)cc2c1=O,232 to 237 °C
17,[N-]=[N+]=C1C(=O)Nc2cccc(Cl)c21,214 to 215 °C
18,COC(=O)[C@H](Cc1c(Br)[nH]c2cc(Br)c(OC)cc12)NC(C)=O,174 to 175 °C
19,Cc1oc(-c2ccccc2)nc1COc1ccc(COc2nn(C)cc2CC(=O)O)cc1,133 to 134 °C

row,SMILES,melting point
1,O=C1CCc2c1cnn2Cc1ccccc1,92 to 93 °C
2,CCCCCC1CN(C(=O)c2cc(OC)c(OC)c(OC)c2)CCN1C(=O)c1cc(OC)c(OC)c(OC)c1 (stereo not drawn),139 to 140 °C
3,CC(Sc1nc2ccc(N)cc2s1)C(=O)NCCN(C)Cc1ccc(Cl)c(Cl)c1 (stereo not drawn),97 to 100 °C
4,CCOP(=O)(OCC)C(C)Oc1cc(-n2c(=O)cc(C(F)(F)F)n(C)c2=O)c(F)cc1Cl (stereo not drawn),103 °C
5,CC[C@H](C)Nc1cc(C(=O)OC)cc(NS(C)(=O)=O)n1,119 to 123 °C
6,CS(=O)(=O)N1Cc2ccccc2C1,131 to 132 °C
7,Cc1ccc(S(=O)(=O)N2CCC3(C=Cc4ccccc43)CC2)cc1,168 to 170 °C
8,COC(=O)c1nc(-c2ccc(Cl)c(OC)c2F)cc(N)c1OC,114 to 118 °C
9,CCCc1c(OCc2ccc3ncc(CCC(=O)O)c(=O)n3c2)ccc(C(C)=O)c1O,190 to 194 °C
10,CCOC(=O)c1cc(OCC)c(OCC)cc1N,69 to 71 °C
11,CC(=O)Oc1c(C)ccc2c1NC(O)C1CCCN1C2=O (stereo not drawn),142 to 145 °C
12,CCc1cn(Cc2ccccc2)c(=O)[nH]c1=O,154 to 155 °C
13,CCCCCCCCCCCCCCCCCC1OC1C (stereo not drawn),40 °C
14,O=C(O)c1ccc(OCCCN(CCO)c2ccc(Cl)cc2)cc1,120 to 122 °C
15,Nc1ccc(Nc2c(NCc3ccco3)cc(C(=O)O)cc2S(N)(=O)=O)cc1,232 °C
16,CCOC(=O)c1cnoc1-c1cc(Cl)cc(Cl)c1,50 to 51 °C
17,C#CCNC(=O)c1ncn2c1[C@@H]1CCN1C(=O)c1sccc1-2,233 to 235 °C
18,CCCCCCCCCCCCCCCCNc1ccc(C(=O)NS(C)(=O)=O)cc1,173 to 175 °C
19,CCOC(=O)c1nnc2n1CC(=O)N(C)c1ccc(Cl)cc1-2,201 to 202 °C

# Next, values leading:
row,melting point,SMILES
1,144 to 146 °C,COc1cc(-c2ncnc(C(F)(F)F)c2C)c(F)cc1Cl
2,230 °C,O=C1CCN(c2cc3c(cc2-c2ccccc2F)NC(=O)CC(c2cccc(-n4ccnc4)c2)=N3)CC1
3,231 °C,O=C(Nc1ccccc1S(=O)(=O)c1ccccc1)N[C@@H](Cc1ccc(NC(=O)c2c(Br)cncc2Br)cc1)C(=O)O
4,73 to 76 °C,O=S(=O)(Nc1ccc(Cl)cc1)C(Cl)=C(Cl)Cl
5,70 to 72 °C,BrCCCCOc1ccc(OCc2ccccc2)cc1
6,120 to 123 °C,O=CN(O)C(CCO)CS(=O)(=O)c1ccccc1Oc1ccc(OC(F)(F)F)cc1 (stereo not drawn)
7,239 to 241 °C,CC(C)(C)C(O)Cn1ccnc1 (stereo not drawn)
8,214 to 216 °C,CC(C)c1cc(OCCO)cc2c1C(=O)N(COc1nc3ccccn3c(=O)c1Cl)S2(=O)=O
9,154 to 155 °C,Cc1ccc(CN2CCN3C(=O)OC(c4ccccc4)(c4ccccc4)C3C2)cc1 (stereo not drawn)
10,218 to 220 °C,C(=Cc1ccc(-c2nc(-c3ccc(C=Cc4ccccc4)cc3)n(-c3ccccc3)n2)cc1)c1ccccc1
11,127 to 129 °C,CC(=O)SC(CC(=O)c1ccc(Sc2ccc(C)cc2)cc1)C(=O)O (stereo not drawn)
12,154 to 157 °C,COc1ccc(CC2CNC(=O)N2)cc1OCc1ccccc1 (stereo not drawn)
13,96 to 102 °C,CC(Cc1cc2ccccc2[nH]1)(NC(=O)OC1C2CC3CC(C2)CC1C3)C(=O)NCC(N)c1ccccc1 (stereo not drawn)
14,90 to 91 °C,CS(=O)(=O)OCCOc1ccccc1OCC1CC1
15,71 to 72 °C,Cc1cc(CCCCCOc2c(Cl)cc(-c3nnc(C)o3)cc2Cl)on1
16,133 to 135 °C,COC(=O)CS(=O)(=O)CCC=C1SC=CS1
17,74 to 76 °C,COc1ccc(Nc2cccc(Cl)n2)cc1
18,95 to 96 °C,CCCC[C@H](NC(=O)[C@H](CCC)NC(=O)OCc1ccccc1)C(=O)CSCc1ccco1
19,> 300 °C,CC(C)c1[nH]c(C(=O)Nc2ccc(C(=O)O)cc2)c(C(C)C)c1C(C)C
20,140 °C,CNC(=O)C(C)c1ccc2c(c1)CCc1ccccc1C2=O (stereo not drawn)
21,207 to 209 °C,COc1cc(C)nc(NC(=O)NS(=O)(=O)c2cccc3cc[nH]c23)n1

row,melting point,SMILES
1,110 to 111 °C,COc1cccc(C2CCCN2CCN2C(=O)c3ccccc3C2=O)c1 (stereo not drawn)
2,177 to 178 °C,Cc1ccc(S(=O)(=O)Oc2ccc(C(=O)c3c(-c4ccccc4)cc4ccccn34)cc2)cc1
3,64 to 65 °C,CCOC(=O)[C@H]1O[C@@H]1C(=O)N[C@H](COCC(=O)N(C)C)CC(C)C
4,95 to 96 °C,COC(=O)CCC(=C1SCCCS1)c1ccc(Oc2ccccc2)cc1
5,199 °C,Cn1ncnc1COc1nn2c(-c3cc(F)ccc3F)nncc2c1-c1ccccc1
6,138 to 140 °C,CC[C@@H](NC(=O)N1CC(=O)NC[C@@H](Cc2cc(Cl)ccc2OC)C1=O)c1cncc(C(=O)O)c1
7,82 to 84 °C,CCOC(=O)c1cnn2c1c(NC(C)CC)nc1ccccc12 (stereo not drawn)
8,187 to 188 °C,O=C(O)c1cn(Cc2ccc(OCc3csc(-c4ccccc4)n3)cc2)nc1-c1cccs1
9,58 to 60 °C,FC(F)(F)c1cc(Cl)c(-n2ncc(CS)n2)c(Cl)c1
10,63 to 65 °C,O=[N+]([O-])c1cccc2c1OC(CO)C2 (stereo not drawn)
11,230 to 231 °C,Cc1cccc(C(=O)c2[nH]c3cc(Cl)ccc3c2CC(=O)O)n1
12,136 to 137 °C,CCCOc1ccccc1-c1nc2cc3ncn(Cc4ccc(Cl)cc4)c3cc2c(=O)[nH]1
13,78 to 79 °C,COc1ccc(Br)c2cc(C(=O)c3cccc(C(F)(F)F)c3)oc12
14,152 to 154 °C,CC(=O)N(C(C)=O)C1=C(N2CCN(Cc3cc(=O)[nH]c(=O)[nH]3)CC2)C(=O)c2ccccc2C1=O
15,254 to 257 °C,CCCn1cc(C(=O)O)c(=O)c2cnc(N3CCN(C)CC3)nc21
16,85 °C,N#Cc1ccc(C(=O)c2ccc(F)cc2)c(CO)c1
17,65 to 67 °C,COC(=O)c1ccc(Sc2ccc(OCCCCl)cc2)cc1
18,143 to 144 °C,Cc1c(Cc2ccc(C(C)C)cc2)c2c(c(C)c1NC(=O)CC(C)(C)C)CC(C)(CN1CCCC1)O2 (stereo not drawn)
19,87 to 89 °C,CCOC(=O)CSc1nc2ccc(N)cc2s1
20,96 to 97 °C,COC1C(OC(=O)N2CCOCC2)CCC2(CO2)C1C1(C)OC1CCOCc1ccccc1 (stereo not drawn)

# Reference: a melting point compilation (Tetko et al.; mined from patent text by program, amines drawn as free bases though some values may be those of a salt)
